Laboratory results as given in ChEMBL document CHEMBL1201862, “PubChem BioAssay data set” (2004).
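Compound exposure: 48 hours, 5 concentrations, 96-well plates. Here, GI50 denotes the concentration required for 50% inhibition of growth.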 Activity calls are given as the source filed them. Cut-off read from the data, not from the text of the source: active = GI50 up to about 1.1 µM and inactive = higher.

Columns and labels:
Assay in all cases: NCI tumour cell line growth inhibition, 48 h
[1] = tested on: A549
[2] = tested on: NCI-H460
[3] = tested on: HCT-116
[4] = tested on: SK-MEL-28
[5] = tested on: MDA-N
[6] = tested on: K562
[7] = tested on: OVCAR-3
[8] = tested on: CAKI-1
[9] = tested on: U-251
[10] = tested on: CCRF-CEM
[11] = tested on: SK-MEL-2
[12] = tested on: MDA-MB-231
[13] = tested on: UACC-62
[14] = tested on: HCT-15
[15] = tested on: NCI-H23
[16] = tested on: UACC-257
[17] = tested on: 786-0
[18] = tested on: SN12C
[19] = tested on: Malme-3M
[20] = tested on: NCI/ADR-RES
[21] = tested on: PC-3
[22] = tested on: MOLT-4
[23] = tested on: OVCAR-8
[24] = tested on: IGROV-1
[25] = tested on: HOP-92
[26] = tested on: SK-OV-3
[27] = tested on: MDA-MB-435
[28] = tested on: HT-29
[29] = tested on: SR
[30] = tested on: SF-268
[31] = tested on: Hs-578T
[32] = tested on: OVCAR-5
[33] = tested on: SNB-19
[34] = tested on: DU-145
[35] = tested on: COLO 205
[36] = tested on: SK-MEL-5
[37] = tested on: UO-31
[38] = tested on: ACHN
[39] = tested on: OVCAR-4
[40] = tested on: HOP-62
[41] = tested on: SF-295
[42] = tested on: TK-10
[43] = tested on: SNB-75
[44] = tested on: M14
[45] = tested on: A498
[46] = tested on: LOX IMVI
[47] = tested on: KM12
[48] = tested on: HCC 2998
[49] = tested on: HL-60
[50] = tested on: SW-620
[51] = tested on: RPMI-8226
[52] = tested on: SF-539
[53] = tested on: BT-549
[54] = tested on: MCF7
[55] = tested on: EKVX
[56] = tested on: NCI-H522
[57] = tested on: NCI-H226
[58] = tested on: RXF 393

C=C(C)[C@H]1CC(=O)/C(C)=C\CC/C(C)=C/CC[C@@]2(C)O[C@@H]2C1
GI50 [1]: 15.8 µM (inactive) | GI50 [2]: 16.8 µM (inactive) | GI50 [3]: 16 µM (inactive) | GI50 [4]: 19.2 µM (inactive) | GI50 [5]: 35.2 µM (inactive) | GI50 [6]: 28.4 µM (inactive) | GI50 [7]: 17 µM (inactive) | GI50 [8]: 1.99 µM (inactive) | GI50 [9]: 22.5 µM (inactive) | GI50 [10]: 35.1 µM (inactive) | GI50 [11]: 35.8 µM (inactive) | GI50 [12]: 34.2 µM (inactive) | GI50 [13]: 8.47 µM (inactive) | GI50 [14]: 33.9 µM | GI50 [15]: 22.3 µM (inactive) | GI50 [16]: 81.7 µM (inactive) | GI50 [17]: 47.5 µM (inactive) | GI50 [18]: 20.8 µM (inactive) | GI50 [19]: 36.8 µM (inactive) | GI50 [20]: 21.8 µM (inactive) | GI50 [21]: 24.8 µM (inactive) | GI50 [22]: 31.8 µM (inactive) | GI50 [23]: 35.5 µM (inactive) | GI50 [24]: 29 µM (inactive) | GI50 [25]: 48.5 µM (inactive) | GI50 [26]: 24.4 µM (inactive) | GI50 [27]: 17 µM (inactive) | GI50 [28]: 16.3 µM (inactive) | GI50 [29]: 25.4 µM (inactive) | GI50 [30]: 23 µM (inactive) | GI50 [31]: 30.9 µM (inactive) | GI50 [32]: 35.4 µM (inactive) | GI50 [33]: 59.8 µM (inactive) | GI50 [34]: 17.7 µM (inactive) | GI50 [35]: 16.5 µM (inactive) | GI50 [36]: 23.7 µM (inactive) | GI50 [37]: 20.7 µM (inactive) | GI50 [38]: 29.4 µM (inactive) | GI50 [39]: 22 µM (inactive) | GI50 [40]: 40.2 µM (inactive) | GI50 [41]: 34.3 µM (inactive) | GI50 [42]: 31.9 µM (inactive) | GI50 [43]: 41.4 µM (inactive) | GI50 [44]: 32.5 µM (inactive) | GI50 [45]: > 100 µM (inactive) | GI50 [46]: 10.9 µM (inactive) | GI50 [47]: 20.8 µM (inactive) | GI50 [48]: 34.5 µM (inactive) | GI50 [49]: 27.5 µM (inactive) | GI50 [50]: 46.3 µM (inactive) | GI50 [51]: 20.7 µM (inactive) | GI50 [52]: 20 µM (inactive) | GI50 [53]: 47.6 µM (inactive)

O=C1c2ccccc2/C=C\C(c2ccccc2)=N/N1c1ccccc1Cl
GI50 [1]: 17.1 µM (inactive) | GI50 [2]: 28.6 µM (inactive) | GI50 [3]: 28.1 µM (inactive) | GI50 [4]: 24 µM (inactive) | GI50 [54]: 21.5 µM (inactive) | GI50 [5]: 3.44 µM (inactive) | GI50 [6]: 5.26 µM (inactive) | GI50 [7]: 27.5 µM (inactive) | GI50 [8]: 16.9 µM (inactive) | GI50 [9]: 21.7 µM (inactive) | GI50 [10]: 34.5 µM (inactive) | GI50 [11]: 60 µM (inactive) | GI50 [12]: 11.9 µM (inactive) | GI50 [14]: 29.5 µM | GI50 [15]: 28.8 µM (inactive) | GI50 [16]: 26.8 µM (inactive) | GI50 [17]: 29.2 µM (inactive) | GI50 [18]: 23 µM (inactive) | GI50 [19]: 23.3 µM (inactive) | GI50 [55]: 22.5 µM (inactive) | GI50 [20]: 15.9 µM (inactive) | GI50 [21]: 6.73 µM (inactive) | GI50 [22]: 15.3 µM (inactive) | GI50 [23]: 27.4 µM (inactive) | GI50 [24]: 29.4 µM (inactive) | GI50 [25]: 26.5 µM (inactive) | GI50 [27]: 3.44 µM (inactive) | GI50 [56]: 12.2 µM (inactive) | GI50 [28]: 17.5 µM (inactive) | GI50 [29]: > 10 µM (inactive) | GI50 [30]: 54.2 µM (inactive) | GI50 [31]: 34.5 µM (inactive) | GI50 [32]: 72.3 µM (inactive) | GI50 [33]: 19.1 µM (inactive) | GI50 [34]: 49.1 µM (inactive) | GI50 [35]: > 10 µM (inactive) | GI50 [36]: 13.4 µM (inactive) | GI50 [37]: 32.5 µM (inactive) | GI50 [57]: 46.8 µM (inactive) | GI50 [38]: 26.4 µM (inactive) | GI50 [39]: 22.4 µM (inactive) | GI50 [40]: 23.2 µM (inactive) | GI50 [41]: 26.1 µM (inactive) | GI50 [42]: 42.8 µM (inactive) | GI50 [43]: 25.9 µM (inactive) | GI50 [44]: 21.9 µM (inactive) | GI50 [45]: 26.5 µM (inactive) | GI50 [46]: 25.1 µM (inactive) | GI50 [58]: 19.2 µM (inactive) | GI50 [47]: 11.6 µM (inactive) | GI50 [48]: 30.3 µM (inactive) | GI50 [49]: 12.7 µM (inactive) | GI50 [50]: 20.1 µM (inactive) | GI50 [51]: 23.7 µM (inactive) | GI50 [52]: 35.7 µM (inactive) | GI50 [53]: 10.9 µM (inactive)
